From PubChem BioAssay (NCI)
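These data come from cells grown in 96-well plates and exposed to compound for 48 hours at five concentrations. At the TGI there is no net growth.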

How the values were obtained:
Test in all cases: growth of human tumour cells (NCI), 48 h
A498 renal = system: A498 renal
SF-539 CNS = system: SF-539 CNS
SR leukemia = system: SR leukemia
RPMI-8226 leukemia = system: RPMI-8226 leukemia
HT29 colon = system: HT29 colon
SK-MEL-28 melanoma = system: SK-MEL-28 melanoma
HOP-18 NSCLC = system: HOP-18 NSCLC
MALME-3M melanoma = system: MALME-3M melanoma
LOX IMVI melanoma = system: LOX IMVI melanoma
HCT-15 colon = system: HCT-15 colon
RXF-631 renal = system: RXF-631 renal
M14 melanoma = system: M14 melanoma
SF-268 CNS = system: SF-268 CNS
SNB-19 CNS = system: SNB-19 CNS
DLD-1 colon = system: DLD-1 colon
HOP-62 NSCLC = system: HOP-62 NSCLC
U251 CNS = system: U251 CNS
DMS 114 small cell lung = system: DMS 114 small cell lung
ACHN renal = system: ACHN renal
HL-60(TB) leukemia = system: HL-60(TB) leukemia
MOLT-4 leukemia = system: MOLT-4 leukemia
CCRF-CEM leukemia = system: CCRF-CEM leukemia
LXFL 529 NSCLC = system: LXFL 529 NSCLC
SW-620 colon = system: SW-620 colon
RXF 393 renal = system: RXF 393 renal
HCC-2998 colon = system: HCC-2998 colon
UACC-62 melanoma = system: UACC-62 melanoma
786-0 renal = system: 786-0 renal
K-562 leukemia = system: K-562 leukemia
DMS 273 small cell lung = system: DMS 273 small cell lung
HOP-92 NSCLC = system: HOP-92 NSCLC
EKVX NSCLC = system: EKVX NSCLC
SK-OV-3 ovarian = system: SK-OV-3 ovarian
TK-10 renal = system: TK-10 renal
OVCAR-8 ovarian = system: OVCAR-8 ovarian
SNB-75 CNS = system: SNB-75 CNS
CAKI-1 renal = system: CAKI-1 renal
KM20L2 colon = system: KM20L2 colon
HCT-116 colon = system: HCT-116 colon
NCI-H23 lung = system: NCI-H23 lung
NCI-H460 lung = system: NCI-H460 lung
NCI-H522 lung = system: NCI-H522 lung
UACC-257 melanoma = system: UACC-257 melanoma
SF-295 CNS = system: SF-295 CNS
IGROV1 ovarian = system: IGROV1 ovarian
OVCAR-4 ovarian = system: OVCAR-4 ovarian
M19-MEL melanoma = system: M19-MEL melanoma
UO-31 renal = system: UO-31 renal
SK-MEL-5 melanoma = system: SK-MEL-5 melanoma
SNB-78 CNS = system: SNB-78 CNS
SN12C renal = system: SN12C renal
A549 NSCLC = system: A549 NSCLC
NCI-H226 lung = system: NCI-H226 lung
OVCAR-5 ovarian = system: OVCAR-5 ovarian
COLO 205 colon = system: COLO 205 colon
SK-MEL-2 melanoma = system: SK-MEL-2 melanoma
KM12 colon = system: KM12 colon
OVCAR-3 ovarian = system: OVCAR-3 ovarian

Compound: CCCCCCCCCCNC(=S)OC
- TGI (A498 renal): > 100 µM
- TGI (SF-539 CNS): > 100 µM
- TGI (SR leukemia): 55.4 µM
- TGI (RPMI-8226 leukemia): 36.7 µM
- TGI (HT29 colon): > 100 µM
- TGI (SK-MEL-28 melanoma): > 100 µM
- TGI (HOP-18 NSCLC): > 100 µM
- TGI (MALME-3M melanoma): > 100 µM
- TGI (LOX IMVI melanoma): 39.6 µM
- TGI (HCT-15 colon): 86.7 µM
- TGI (RXF-631 renal): > 100 µM
- TGI (M14 melanoma): > 100 µM
- TGI (SF-268 CNS): > 100 µM
- TGI (SNB-19 CNS): > 100 µM
- TGI (DLD-1 colon): > 100 µM
- TGI (HOP-62 NSCLC): > 100 µM
- TGI (U251 CNS): > 100 µM
- TGI (DMS 114 small cell lung): 44.9 µM
- TGI (ACHN renal): > 100 µM
- TGI (HL-60(TB) leukemia): 44.8 µM
- TGI (MOLT-4 leukemia): 30.8 µM
- TGI (CCRF-CEM leukemia): > 100 µM
- TGI (LXFL 529 NSCLC): > 100 µM
- TGI (SW-620 colon): > 100 µM
- TGI (RXF 393 renal): > 100 µM
- TGI (HCC-2998 colon): > 100 µM
- TGI (UACC-62 melanoma): 65 µM
- TGI (786-0 renal): > 100 µM
- TGI (K-562 leukemia): > 100 µM
- TGI (DMS 273 small cell lung): > 100 µM
- TGI (HOP-92 NSCLC): 65.9 µM
- TGI (EKVX NSCLC): > 100 µM
- TGI (SK-OV-3 ovarian): > 100 µM
- TGI (TK-10 renal): > 100 µM
- TGI (OVCAR-8 ovarian): > 100 µM
- TGI (SNB-75 CNS): > 100 µM
- TGI (CAKI-1 renal): > 100 µM
- TGI (KM20L2 colon): > 100 µM
- TGI (HCT-116 colon): > 100 µM
- TGI (NCI-H23 lung): > 100 µM
- TGI (NCI-H460 lung): > 100 µM
- TGI (NCI-H522 lung): 58.7 µM
- TGI (UACC-257 melanoma): 83.8 µM
- TGI (SF-295 CNS): > 100 µM
- TGI (IGROV1 ovarian): > 100 µM
- TGI (OVCAR-4 ovarian): > 100 µM
- TGI (M19-MEL melanoma): 69.4 µM
- TGI (UO-31 renal): 85.8 µM
- TGI (SK-MEL-5 melanoma): 54.1 µM
- TGI (SNB-78 CNS): > 100 µM
- TGI (SN12C renal): > 100 µM
- TGI (A549 NSCLC): > 100 µM

Compound: C=CCC1(CN(C)C)CC/C(=C\c2cc(OC)c(OC)c(OC)c2)C1=O (stereo not drawn)
- TGI (A498 renal): 79 µM
- TGI (SF-539 CNS): 35 µM
- TGI (SR leukemia): 49.1 µM
- TGI (RPMI-8226 leukemia): 59.6 µM
- TGI (HT29 colon): 40.6 µM
- TGI (SK-MEL-28 melanoma): > 100 µM
- TGI (HOP-18 NSCLC): > 100 µM
- TGI (MALME-3M melanoma): > 100 µM
- TGI (LOX IMVI melanoma): 43 µM
- TGI (HCT-15 colon): 35.2 µM
- TGI (RXF-631 renal): 60.9 µM
- TGI (M14 melanoma): 38.4 µM
- TGI (SF-268 CNS): 51.6 µM
- TGI (NCI-H226 lung): > 100 µM
- TGI (SNB-19 CNS): > 100 µM
- TGI (OVCAR-5 ovarian): > 100 µM
- TGI (DLD-1 colon): 38.5 µM
- TGI (HOP-62 NSCLC): > 100 µM
- TGI (U251 CNS): 59.5 µM
- TGI (DMS 114 small cell lung): 39.5 µM
- TGI (ACHN renal): 70.8 µM
- TGI (HL-60(TB) leukemia): 20.6 µM
- TGI (MOLT-4 leukemia): 78.8 µM
- TGI (CCRF-CEM leukemia): 51.9 µM
- TGI (LXFL 529 NSCLC): 35.2 µM
- TGI (SW-620 colon): 33.6 µM
- TGI (COLO 205 colon): 31.3 µM
- TGI (RXF 393 renal): 37.3 µM
- TGI (HCC-2998 colon): 35.5 µM
- TGI (UACC-62 melanoma): 43.1 µM
- TGI (786-0 renal): 39.3 µM
- TGI (SK-MEL-2 melanoma): > 100 µM
- TGI (K-562 leukemia): 54.1 µM
- TGI (HOP-92 NSCLC): > 100 µM
- TGI (EKVX NSCLC): 61.4 µM
- TGI (TK-10 renal): 36.4 µM
- TGI (KM12 colon): 32.8 µM
- TGI (OVCAR-8 ovarian): 54.6 µM
- TGI (SNB-75 CNS): > 100 µM
- TGI (CAKI-1 renal): > 100 µM
- TGI (KM20L2 colon): 44.4 µM
- TGI (HCT-116 colon): 31.3 µM
- TGI (NCI-H23 lung): > 100 µM
- TGI (NCI-H460 lung): 36.9 µM
- TGI (OVCAR-3 ovarian): 69.2 µM
- TGI (NCI-H522 lung): 29.4 µM
- TGI (UACC-257 melanoma): 58.3 µM
- TGI (SF-295 CNS): 92.8 µM
- TGI (IGROV1 ovarian): 74.6 µM
- TGI (OVCAR-4 ovarian): 50.4 µM
- TGI (M19-MEL melanoma): > 100 µM
- TGI (UO-31 renal): 77 µM
- TGI (SK-MEL-5 melanoma): 35.3 µM
- TGI (SNB-78 CNS): > 100 µM
- TGI (SN12C renal): 54.8 µM
- TGI (A549 NSCLC): > 100 µM
